Source: patent publication US5585352A, “Method of treating septic shock using thymosin-α 1” (The George Washington University Medical Center, priority 1994, dated 1996)
No end group written: not given here.

Assays:
[1] = system: blood free radical levels; experiment: Blood free radical levels; assay type: in vivo; conditions: compared with SOD
6-keto-PGF1 = 6-keto-PGF1 levels in a septic shock model in rat; assay type: in vivo, Sprague-Dawley rats; conditions: Rats with Septic Shock + Tα1 1 mg/rat × 3
Excerpt: (§1) Using a septic shock model in rats (Sprague-Dawley, male, 200-225 g each), the effect of thymosin α1 alone and together with antibiotics was studied. Peritonitis was induced in rats in the following way. A 1-cm incision was made into the peritoneal which exposed the cecum. A tight ligature was placed around the cecum with 4-0 suture distal to the insertion of the small bowel, forming an area of devitalized tissue while maintaining bowel continuity. A puncture wound was made with 16-gauge needle into the anti-mesenteric surface of the cecum and a small amount of fecal contents was expressed through the wound. The cecum was replaced into the peritoneal cavity, and the anterior peritoneal wall and skin were closed with surgical staples. Each animal was given a bolus of normal saline (15 ml/kg) for hydration and allowed to recover overnight.
(§2) **At 0 hr, 2 hr, and 4 hr post induction of peritonitis

T × β2 = experiment: Txβ2 levels in a septic shock model in rat; assay type: in vivo, Sprague-Dawley rats; conditions: Rats with Septic Shock + Tα1 1 mg/rat × 3
Excerpt: as §1, §2

IL1 α = experiment: IL1α levels in a septic shock model in rat; assay type: in vivo, Sprague-Dawley rats; conditions: Rats with Septic Shock + Tα1 1 mg/rat × 3
Excerpt: as §1, §2

TNFα = TNFα levels in a septic shock model in rat; assay type: in vivo, Sprague-Dawley rats; conditions: Rats with Septic Shock + Tα1 1 mg/rat × 3
Excerpt: as §1, §2

glutathione (RBC GSH) [2] = experiment: Erythrocyte glutathione levels in mice treated with lethal doses of endotoxin; assay type: in vivo, Swiss-Webster mice
Method: (§3) Swiss-Webster mice 4-6 weeks of age (20-25 g) were divided into 2 groups: endotoxic mice (endotoxin 60 mg/kg i.p. in acute treatment) and endotoxic mice treated with 3 injections of 100 μg Tα1 (5 minutes, 2 and 4 hours post administration of the endotoxin).
*Total erythrocyte glutathione, 98% of which is in the reduced form (GSH)
was determined by the enzymatic "cyclic method."-

glutathione (RBC GSH) [3] = experiment: Glutathione levels in a rat septic shock model; assay type: in vivo, Sprague-Dawley rats; conditions: Rats with Septic Shock + Tα1 mg/rat × 3
Excerpt: as §1, §2

Txβ2 = Txβ2 plasma levels in mice after lethal dose of endotoxin; assay type: in vivo, Swiss-Webster mice
Method: as §3
(§4) Using the same methods and materials as in examples 1 and 2, the effect which Tα1 has on blood levels of IL-1α, TNF-α, PAG, Txβ2 and 6-keto-PGF1 α, which are pathological mediators of endotoxin induced lethality, was studied.

PAF = PAF blood levels in mice after lethal dose of endotoxin; assay type: in vivo, Swiss-Webster mice
Method: as §3, §4

[4] = system: Cerebellar cortex cyclic GMP; experiment: cGMP cerebellar levels in mice treated with lethal doses of endotoxin; assay type: in vivo, Swiss-Webster mice
Method: as §3

TNF-α = experiment: Serum TNF-α levels in mice treated with lethal doses of endotoxin; assay type: in vivo, Swiss-Webster mice
Method: as §3
(§5) *Mice were pretreated with SOD (super oxide dismatase), 30 minutes before
(§6) endotoxin administration XX blood for determined of TNFα and
(§7) IL1α levels was collected 1 hr after endotoxin administration.
as §4

endotoxic mice = experiment: Survival of Swiss Webster mice following lethal endotoxin dose and Tα1; assay type: in vivo
Method: as §3
Using the same materials and methods as in example 1, the time and dose-dependency of the protective effect of Tα1 on endotoxin lethality were studied.

malonyldialdehyde [5] = experiment: Lipid peroxidation (blood malonyldialdehyde) in a septic shock model in rat; assay type: in vivo, Sprague-Dawley rats; conditions: Rats with Septic + Tα1 1 mg/rat × 3
Excerpt: as §1, §2

6-keto-PGF1α = 6-keto-PGF1α plasma levels in mice after lethal dose of endotoxin; assay type: in vivo, Swiss-Webster mice
Method: as §3, §4

Rats with Septic Shock = experiment: Survival in septic shock model in rats (peritonitis by cecal ligation and puncture); assay type: in vivo, Sprague-Dawley rats; conditions: for Number of Rats Alive, 24 h / Number of Rats Alive, 48 h / Number of Rats Alive, 72 h: Rats with Septic Shock + Tα1 1 mg/rat × 3, 10 alive at 0 h
Excerpt: as §1
*gentamicin sulfate, 1 mg/rat
as §2

IL-1α = experiment: Serum IL-1α levels in mice treated with lethal doses of endotoxin; assay type: in vivo, Swiss-Webster mice
Method: as §3, §5, §6, §7, §4

malonyldialdehyde [6] = experiment: Blood hydroperoxide (malonyldialdehyde) levels in mice treated with lethal doses of endotoxin; assay type: in vivo, Swiss-Webster mice
Method: as §3
*Whole blood samples (0.5 ml) were obtained by tail bleds 1 hour after
endotoxin administration

[7] = during sepsis, species not given
[8] = first of two unlabelled columns
[9] = second of two unlabelled columns
[10] = Table XI, Endotoxin 60 mg/kg + Tα1 100 μg administered immediately following
[11] = after administration of a lethal dose of endotoxin
[12] = Table X, Endotoxin 60 mg/kg + Tα1 100 μg administered immediately following
[13] = Table XIII, Endotoxin 60 mg/kg + Tα1 100 μg administered immediately following
[14] = Table VI, serum, Endotoxin 60 mg/kg + Tα1
[15] = Table VII, serum, pretreatment with SOD 3.3 × 10^4 μ/kg (30 minutes before endotoxin) or Tα1 100 μg/mice, blood 1 hr after endotoxin
[16] = Table XIV, Endotoxin 60 mg/kg + Tα1 100 μg administered immediately following
[17] = Table I, Endotoxin 60 mg/kg + Tα1 100 μg 3×, 7 alive at 0 hrs
[18] = Table II, Endotoxin 60 mg/kg + Tα1 100 μg 3×, 8 alive at 0 hr.
[19] = Table VIII, Tα1 10 μg, 3×, immediately following, 2 and 4 hrs. after endotoxin, 8 alive at 0 hrs
[20] = Table VIII, Tα1 100 μg, 3×, 2, 4 and 6 hrs. after endotoxin, 8 alive at 0 hrs
[21] = Table VIII, Tα1 100 μg, 3×, immediately following, 2 and 4 hrs. after endotoxin, 8 alive at 0 hrs
[22] = Table XII, Endotoxin 60 mg/kg + Tα1 100 μg administered immediately following
[23] = Table XV, rats with peritonitis, both groups got antibiotic (gentamicin sulfate, 1 mg/rat), thymosin α1 1 mg/rat × 3, 10 at 0 hr
[24] = Table IX, Endotoxin 60 mg/kg + Tα1 100 μg administered immediately following

Substance: Thymosin α1 (SDAAVDTSSEITTKDLKEKKEVVEEAEN; ends and bridges not checked; UniProt P06454 2-29, looked up) [Tα1, peptide originally derived from the Thymus gland, 28 amino acids; synthetic Tα1 prepared by solid phase peptide synthesis]
- blood free radical levels [1]: reduce blood free radical levels almost as much as SOD
- 6-keto-PGF1 (6-keto-PGF1): 1132 ± 96 pg/mL
- T × β2 (T × β2): 2353 ± 197 pg/mL
- IL1 α (IL1 α): 689 ± 53 pg/mL
- TNFα (TNFα): 1231 ± 129 pg/mL
- RBC GSH (glutathione (RBC GSH) [2]; Endotoxin 60 mg/kg + Tα1 100 μg/mouse, total erythrocyte glutathione): 1.12 ± 0.12 μmoles/ml cells
- circulating blood levels of glutathione (glutathione (RBC GSH) [2]; [7]): returns circulatory gluthathine leves to normal or about normal
- RBC GSH (glutathione (RBC GSH) [3]; [8]): 1.29 ± 0.07 μmoles/ml cells
- RBC GSH (glutathione (RBC GSH) [3]; [9]): 1.20 ± 0.085 μmoles/ml cells
- T × β2 (plasma levels), 0.5 hr. (Txβ2; [10]): 910 ± 85 pg/mL
- T × β2 (plasma levels), 2 hr (Txβ2; [10]): 530 ± 47 pg/mL
- T × β2 (plasma levels), 1 hr (Txβ2; Table XI, Endotoxin 60 mg/kg + Tα1 100 μg administered immediately following, spread 185 printed): 1921 pg/mL
- T × β2 (plasma levels), 3 hr (Txβ2; Table XI, Endotoxin 60 mg/kg + Tα1 100 μg administered immediately following, spread 260 printed): 391 pg/mL
- Txβ2 plasma levels (Txβ2; [11]): decreased
- PAF (plasma levels), 0.5 hr (PAF; [12]): 48 ± 3 pg/mL
- PAF (plasma levels), 1 hr (PAF; [12]): 136 ± 9 pg/mL
- PAF (plasma levels), 2 hr (PAF; [12]): 68 ± 4 pg/mL
- PAF (plasma levels), 3 hr (PAF; [12]): 32 ± 2 pg/mL
- PAF (serum levels), 1 hr (PAF; [13]): 783 pg/mL
- PAF (serum levels), 3 hr (PAF; [13]): 508 pg/mL
- PAF (serum levels), 5 hr (PAF; [13]): 429 pg/mL
- PAF plasma levels (PAF; [11]): decreased
- Cerebellar cortex cyclic GMP ([4]; Endotoxin 60 mg/kg i.p. + Tα1 100 μg): 14.6 ± 1.2 pmol per mg/protein
- cerebellar cGMP levels ([4]; administration during sepsis): decreases cerebellar cGMP levels
- TNF-α, 1 hr (TNF-α; [14]): 638 ± 57 pg/mL
- TNF-α, 3 hr (TNF-α; [14]): 426 ± 37 pg/mL
- TNF-α, 5 hr (TNF-α; [14]): 297 ± 27 pg/mL
- TNF-α (TNF-α; [15]): 285 ± 23.6 pg/mL
- TNF-α (serum levels), 1 hr (TNF-α; [16]): 783 pg/mL
- TNF-α (serum levels), 3 hr (TNF-α; [16]): 508 pg/mL
- TNF-α (serum levels), 5 hr (TNF-α; [16]): 429 pg/mL
- TNF-α serum levels (TNF-α; [11]): decreased
- Number of Mice Alive, 24 hrs (endotoxic mice; Table I, Endotoxin 60 mg/kg + Tα1 100 μg 3× (5 minutes, 2 and 4 hours post endotoxin), 7 alive at 0 hrs): 7
- Number of Mice Alive, 48 hrs (endotoxic mice; [17]): 7
- Number of Mice Alive, 72 hrs (endotoxic mice; [17]): 7
- Number of Mice Alive, 24 hr. (endotoxic mice; [18]): 8
- Number of Mice Alive, 48 hr. (endotoxic mice; [18]): 8
- Number of Mice Alive, 72 hr. (endotoxic mice; [18]): 8
- Number of Mice Alive, 7 day (endotoxic mice; [18]): 8
- Number of Mice Alive, 14 day (endotoxic mice; [18]): 8
- Number of Mice Alive, 24 hrs (endotoxic mice; Table VIII, Endotoxin 60 mg/kg + Tα1 10 μg, 3×, immediately following, 2 and 4 hrs. after endotoxin, 8 alive at 0 hrs): 8
- Number of Mice Alive, 24 hrs (endotoxic mice; Table VIII, Endotoxin 60 mg/kg + Tα1 100 μg, 3×, 2, 4 and 6 hrs. after endotoxin, 8 alive at 0 hrs): 8
- Number of Mice Alive, 24 hrs (endotoxic mice; Table VIII, Endotoxin 60 mg/kg + Tα1 100 μg, 3×, immediately following, 2 and 4 hrs. after endotoxin, 8 alive at 0 hrs): 8
- Number of Mice Alive, 48 hrs (endotoxic mice; [19]): 5
- Number of Mice Alive, 72 hrs (endotoxic mice; [19]): 5
- Number of Mice Alive, 96 hrs (endotoxic mice; [19]): 5
- Number of Mice Alive, 120 hrs (endotoxic mice; [19]): 5
- Number of Mice Alive, 48 hrs (endotoxic mice; [20]): 8
- Number of Mice Alive, 72 hrs (endotoxic mice; [20]): 8
- Number of Mice Alive, 96 hrs (endotoxic mice; [20]): 8
- Number of Mice Alive, 120 hrs (endotoxic mice; [20]): 8
- Number of Mice Alive, 48 hrs (endotoxic mice; [21]): 8
- Number of Mice Alive, 72 hrs (endotoxic mice; [21]): 8
- Number of Mice Alive, 96 hrs (endotoxic mice; [21]): 8
- Number of Mice Alive, 120 hrs (endotoxic mice; [21]): 8
- survival rate of mice treated with endotoxin (endotoxic mice; Tα1 administered 3 times post administration of endotoxin, Tables I and II): 100%
- effective protective dose (endotoxic mice; administered three times, endotoxin lethality in mice): 100 µg
- protective effect on endotoxin toxicity (endotoxic mice; given immediately following, 2 and 4 hours after, or 2, 4 and 6 hours after endotoxin treatment): had protective effect on endotoxin toxicity
- Blood Levels of malonyldialdehyde (malonyldialdehyde [5]; [8]): 17.1 ± 1.6 nNol MDA
- Blood Levels of malonyldialdehyde (malonyldialdehyde [5]; [9]): 21.9 ± 2.3 nNol MDA
- 6-keto-PGF1α (plasma levels), 0.5 hr. (6-keto-PGF1α; [22]): 224 ± 19 pg/mL
- 6-keto-PGF1α (plasma levels), 1 hr (6-keto-PGF1α; [22]): 745 ± 62 pg/mL
- 6-keto-PGF1α (plasma levels), 2 hr (6-keto-PGF1α; [22]): 341 ± 33 pg/mL
- 6-keto-PGF1α (plasma levels), 3 hr (6-keto-PGF1α; [22]): 205 ± 19 pg/mL
- 6-keto-PGF1 α plasma levels (6-keto-PGF1α; [11]): decreased
- Survival of Sprague-Dawley rats, 48 hr (Rats with Septic Shock; [23]): 6
- Survival of Sprague-Dawley rats, 72 hr (Rats with Septic Shock; [23]): 6
- Survival of Sprague-Dawley rats, 24 hr (Rats with Septic Shock; Table XV, rats with peritonitis, both groups got antibiotic (gentamicin sulfate, 1 mg/rat), thymosin α1 1 mg/rat × 3 at 0, 2 and 4 hr post induction, 10 at 0 hr): 8
- survival of rats (Rats with Septic Shock; Table XV, with antibiotic): increased the survival of rats
- Number of Rats Alive, 24 h (Rats with Septic Shock; Table XX): 9
- Number of Rats Alive, 48 h (Rats with Septic Shock; Table XX): 9
- Number of Rats Alive, 72 h (Rats with Septic Shock; Table XX): 5
- Number of Rats Alive, 24 h (Rats with Septic Shock; Table XXI): 8
- Number of Rats Alive, 48 h (Rats with Septic Shock; Table XXI): 7
- Number of Rats Alive, 72 h (Rats with Septic Shock; Table XXI): 3
- survival rate of rats with septic shock (Rats with Septic Shock; Tables XX and XXI): increases the survival rate of rats with septic shock
- IL-1α (serum levels), 1 hr (IL-1α; [24]): 83 ± 7.1 pg/mL
- IL-1α (serum levels), 3 hr (IL-1α; [24]): 165 ± 13.7 pg/mL
- IL-1 α (IL-1α; [15]): 109 ± 71 pg/mL
- IL-1α serum levels (IL-1α; [11]): decreased
- Blood Levels of malonyldialdehyde (malonyldialdehyde [6]; Endotoxin 60 mg/kg + Tα1 100, whole blood 1 hour after endotoxin administration): 16.9 ± 1.36 nMol MDA
- peroxidation of lipids in blood (malonyldialdehyde [6]; [7]): returned to normal or about normal
